Consider two molecules from PMC9731865, “Gambogic acid and juglone inhibit RNase P through distinct mechanisms” (The Journal of Biological Chemistry, 2022).

The term kinact/KI denotes the second-order rate constant of inactivation. Usually IC50 stands for the point on the concentration scale where inhibition reaches its midpoint.

One assay concerns the target T1, PRORP1 C353A (Arabidopsis thaliana, UniProt Q66GI4, C353A).
T1 construct: made in house
Put plainly: Time-dependent inactivation by juglone, PRORP1 C353A. The format is biochemical, A. thaliana. The procedure: (§1) Given the multiple sites of cysteine modification, we wanted to identify the one(s) that potentially play a significant role in PRORP1 inactivation. Therefore, several cysteine-to-alanine point mutants were expressed, purified, and subjected to inhibition studies. We tested both single-site (C353A and C373A) and double-site (C353A/C373A and C222A/C353A) mutations. […] The value of kinact,app for each PRORP1 at varied concentrations of juglone was determined by fitting a single exponential equation (Equation 5) to the data (Fig. 10A). Unexpectedly, the values of kinact/KI (reflecting the inhibition of E + I to form EI∗) increased for a number of the PRORP1 variants: wildtype (0.001 ± 0.00004 μM^-1 min^-1), C353A (0.005 ± 0.002 μM^−1 min^−1), C373A (0.002 ± 0.0004 μM^-1 min^−1), C222A/C353A (0.003 ± 0.0001 μM^−1 min^−1), and C353A/C373A (0.0008 ± 0.0002 μM^-1 min^−1). These modest increases could be due to a decrease in the KI value or an increase in the value of kinact. […] Although, we cannot discount the possibility, however unlikely, that juglone may employ a mode of inhibition beyond cysteine residue modification that our crystal structures fail to capture.
(§2) Figure 10 Effects of PRORP1 cysteine mutations on juglone inactivation. […]
(§3) For the analysis of juglone, PRORP1 activity was measured with varying preincubation time and juglone concentration. […]

Another assay addresses T2, PRORP1 C222A/C353A (Arabidopsis thaliana, UniProt Q66GI4, C222A/C353A).
T2 construct: made in house
The experiment in a line: Time-dependent inactivation by juglone, PRORP1 C222A/C353A. It is filed as biochemical, A. thaliana. The procedure: as §1, §2, §3

The next assay has as its target T. maritima RNase P. Set-up: method as in PMID 30997498. The note with it: cited from earlier work.
Another assay concerns B. subtilis RNase P. Put plainly: B. subtilis RNase P activity assay (FP, real-time). The format is biochemical. Particulars: ratio of IC50 values. The procedure:
Figure 4 Gambogic acid and juglone inhibit A. thaliana PRORP1 (green), human MRPP1/2/3 (red), and B. subtilis RNase P (blue). Compounds gambogic acid (A) and juglone (B) were incubated with enzyme at double the reaction concentration for 30 min prior to the addition of an equal volume of substrate to initiate the reaction. PRORP1 reactions (shown in green) were performed with 0.3 nM PRORP1 and 800 nM pre-tRNA containing 40 nM Fl-pre-tRNA at 25 °C in 30 mM MOPS pH 7.8, 5 mM MgCl2, 100 mM NaCl, 1 mM TCEP, 500 nM (12 μg/ml) yeast tRNA, 5 mM spermidine, 6.65 μg/ml BSA, and 0.01% NP-40. MRPP1/2/3 reactions (shown in red) were performed using 50 nM MRPP3, 500 nM MRPP1/2, 500 nM pre-tRNA containing 40 nM Fl-pre-tRNA at 37 °C in 50 mM MOPS (pH 7.8), 1 mM TCEP, 4.5 mM MgCl2, and 100 mM NaCl. B. subtilis RNase P reactions (shown in blue) were performed using 20 nM RNase P and 500 nM pre-tRNA containing 40 nM Fl-pre-tRNA at 37 °C in 50 mM Tris, pH 7.2, 5 mM MgCl2, 100 mM KCl, 500 nM (12 μg/ml) yeast tRNA, 20 mM dithiothreitol (DTT), 10 mM spermidine, and 0.01% NP-40. Equation 1 was fit to each dataset.
The inhibition of B. subtilis RNase P activity by gambogic acid and juglone was measured using a previously developed FP assay in real-time.^25 Reactions were performed under multiple turnover conditions using 20 nM RNase P and 500 nM Fl-pre-tRNA^Asp in 50 mM Tris (pH 7.2), 5 mM MgCl2, 100 mM KCl, 500 nM (12 μg/ml) yeast tRNA^mix, 20 mM dithiothreitol, 10 mM spermidine, and 0.01% NP-40 at 37 °C.

T2 sequence (Q66GI4 77-572 C222A/C353A): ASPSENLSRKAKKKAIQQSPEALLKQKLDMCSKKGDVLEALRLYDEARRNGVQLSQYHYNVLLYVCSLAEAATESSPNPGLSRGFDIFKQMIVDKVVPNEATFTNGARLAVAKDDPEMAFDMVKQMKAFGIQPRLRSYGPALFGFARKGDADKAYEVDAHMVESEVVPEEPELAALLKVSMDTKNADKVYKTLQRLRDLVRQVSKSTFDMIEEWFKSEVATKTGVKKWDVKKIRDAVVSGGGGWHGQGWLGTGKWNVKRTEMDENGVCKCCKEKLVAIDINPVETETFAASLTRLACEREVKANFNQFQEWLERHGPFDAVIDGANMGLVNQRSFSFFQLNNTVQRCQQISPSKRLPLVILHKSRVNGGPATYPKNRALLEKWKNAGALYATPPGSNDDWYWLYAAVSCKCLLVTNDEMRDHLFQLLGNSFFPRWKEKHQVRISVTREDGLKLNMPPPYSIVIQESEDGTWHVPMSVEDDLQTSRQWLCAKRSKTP
T1 sequence (Q66GI4 77-572 C353A): as the sequence (Q66GI4 77-572 C222A/C353A) above, with A146C counted along it

With `O=C1C=CC(=O)c2c(O)cccc21` [juglone, 5-hydroxy-1,4-naphthalenedione], on PRORP1 C353A, the Ki was > 10 µM. Besides, the results for the kinact/KI on PRORP1 C353A and on PRORP1 C222A/C353A were 83.3 M⁻¹ s⁻¹ and 50 M⁻¹ s⁻¹, respectively. Also, on PRORP1 C222A/C353A (double-cysteine mutation (C222A/C353A)), the “inhibition at time 0” value is on record as “not observed”. Besides, the IC50 on T. maritima RNase P was 12.8 µM.

Turning to `CC(C)=CCC[C@]1(C)C=Cc2c(O)c3c(c(CC=C(C)C)c2O1)O[C@]12C(=C[C@@H]4C[C@H]1C(C)(C)O[C@@]2(C/C=C(/C)C(=O)O)C4=O)C3=O` [gambogic acid], the “fold less potent against B. subtilis RNP RNase P than against PRORP1 and MRPP1/2/3” value was “at least 50 fold” in the assay with B. subtilis RNase P and “more than 50 fold” in the assay on B. subtilis RNase P (listed as Gambogic acid).
